Experimental data published in patent US6147073A, “Substituted tetralymethylen-Oxindoles analogues as tyrosine kinase inhibitors” (Pharmacia & Upjohn S.p.A., priority 1996, dated 2000).
Where a name gives a salt, the structure may show the parent alone.

Tests used:
[1] = target: p45 v-abl tyrosine kinase; test: p45 v-abl Kinase Assay ((Val^5)-angiotensin II phosphorylation); format: biochemical, Abelson murine leukemia virus; settings: purified abl-kinase 40 ng; peptide 2 mM, ATP 50 μM; pH 8.0, 30° C.
Experimental: The enzyme used in our tests is the p45 v-abl tyrosine kinase which represents the catalytic domain of the Abelson tyrosine kinase (isolated from the Abelson murine leukemia virus). The p45 v-abl kinase is produced and isolated as described by Wang et al. in J.Biol.Chem. 260, 64 (1985) and by Ferguson et al. in J.Biol.Chem. 260, 3652 (1985) and in Biochem.J. 257, 321 (1989).
(Val^5)-angiotensin II phosphorylation is performed by incubation with 40 ng of purified abl-kinase and (γ-^32 P) ATP, in 50 μl of buffer containing Tris-HCl 25 mM, pH 8.0, MgCl2 10 mM and dithiothreitol 0.1 mM (kinase buffer). The reaction mixture is incubated for the indicated time at 30° C. and the reaction stopped by adding 50 μl of 5% trichloracetic acid. After a brief incubation on ice the tubes are centrifuged. The supernatants are spotted on phosphocellulase paper squares (Whatman P-81) and washed extensively in acetic acid. The radioactivity bound to dried phosphocellulose squares is measured in a liquid scintillation counter. IC50 values are calculated from triplicated determination of each experimental point. Each inhibitor is tested at concentrations ranging from […] in the presence of fixed concentrations of peptide (2 mM) and ATP (50 μM).

K562 cells = test: K562 Cell Growth Inhibition Assay; format: cell-based; settings: human myelogenous leukemia cell line, cell count after 72 h vs untreated control
Experimental: K562 cells, a human myelogenous leukemia cell line, were seeded into a 24 wells tissue culture plate (Falcon 3047) (10000/well) in the presence of increasing concentrations of the compounds.
After 72 h, cells were harvested and were counted using a cell counter (Coulter Counter-ZM). The percent of inhibition was evaluated in respect to the untreated control cells.

SMILES	IC50 [1] [µM]	IC50 (K562 cells) [µM]	IC50 (K562 cells; K562) [µM]
NC(CCC(=O)O)C(=O)Nc1ccc2c(c1)C(=Cc1cc(O)c3c(c1O)CCCC3)C(=O)N2 (centres unmarked) [5-(glutamylamino)-3-(1,4-dihydroxy-2-tetralylmethylen)-2-oxindole]	10	5.97	–
CC(N)C(=O)NC(C)C(=O)Nc1ccc2c(c1)C(=Cc1cc(O)c3c(c1O)CCCC3)C(=O)N2 (centres unmarked) [5-(alanylalanylamino)-3-(1,4-dihydroxy-2-tetralylmethylen)-2-oxindole trifluoroacetate]	3.12	–	5.3
CC(N)C(=O)Nc1ccc2c(c1)C(=Cc1cc(O)c3c(c1O)CCCC3)C(=O)N2 (centres unmarked) [5-(alanylamino)-3-(1,4-dihydroxy-2-tetralylmethylen)-2-oxindole]	10	–	8.31
CC(NC(=O)OC(C)(C)C)C(=O)Nc1ccc2c(c1)C(=Cc1cc(O)c3c(c1O)CCCC3)C(=O)N2 (centres unmarked) [5-(N-tert-butoxycarbonylalanylamino)-3-(1,4-dihydroxy-2-tetralylmethylen)-2-oxindole]	1.56	–	5.86
